Values joined by “and” are separate entries in the source; they are usually repeats but may differ in a detail not shown here. Equal entries are not always repeated. Inconclusive results and toxic doses are left out.
Test system: CD2F1 mice, L1210 leukemia ip, survival T/C
Assay: NCI In Vivo Anticancer Drug Screen. Data for tumor model L1210 Leukemia (intraperitoneal) in CD2F1 (CDF1) mice
Conditions: higher = longer survival
Method in brief: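 Tumor-bearing mice (transplanted tumor) were split into treated and vehicle control groups, and the measured endpoint of each treated group was divided by that of its vehicle controls.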

[1] = endpoint: mean survival time, dose: 100.0 mg/kg/injection, schedule: Q01DX001 (ip), vehicle: saline with Tween-80
[2] = endpoint: mean survival time, dose: 200.0 mg/kg/injection, schedule: Q01DX001 (ip), vehicle: saline with Tween-80
[3] = endpoint: mean survival time, dose: 400.0 mg/kg/injection, schedule: Q01DX001 (ip), vehicle: saline with Tween-80
[4] = endpoint: mean survival time, dose: 12.5 mg/kg/injection, schedule: Q01DX009 (ip), vehicle: saline
[5] = endpoint: mean survival time, dose: 25.0 mg/kg/injection, schedule: Q01DX009 (ip), vehicle: saline
[6] = endpoint: mean survival time, dose: 50.0 mg/kg/injection, schedule: Q01DX009 (ip), vehicle: saline
[7] = endpoint: mean survival time, dose: 100.0 mg/kg/injection, schedule: Q01DX009 (ip), vehicle: saline
[8] = endpoint: mean survival time, dose: 100.0 mg/kg/injection, schedule: Q01DX001 (ip), vehicle: saline
[9] = endpoint: mean survival time, dose: 200.0 mg/kg/injection, schedule: Q01DX001 (ip), vehicle: saline
[10] = endpoint: mean survival time, dose: 100.0 mg/kg/injection, schedule: Q04DX003 (ip), vehicle: saline with Tween-80
[11] = endpoint: mean survival time, dose: 200.0 mg/kg/injection, schedule: Q04DX003 (ip), vehicle: saline with Tween-80
[12] = endpoint: mean survival time, dose: 400.0 mg/kg/injection, schedule: Q04DX003 (ip), vehicle: saline with Tween-80
[13] = endpoint: mean survival time, dose: 100.0 mg/kg/injection, schedule: Q01DX009 (ip), vehicle: saline with Tween-80
[14] = endpoint: mean survival time, dose: 200.0 mg/kg/injection, schedule: Q01DX009 (ip), vehicle: saline with Tween-80
[15] = endpoint: mean survival time, dose: 400.0 mg/kg/injection, schedule: Q01DX009 (ip), vehicle: saline with Tween-80
[16] = endpoint: mean survival time, dose: 100.0 mg/kg/injection, schedule: Q04DX002 (ip), vehicle: saline with Tween-80
[17] = endpoint: mean survival time, dose: 200.0 mg/kg/injection, schedule: Q04DX002 (ip), vehicle: saline with Tween-80
[18] = endpoint: mean survival time, dose: 50.0 mg/kg/injection, schedule: Q01DX009 (ip), vehicle: saline with Tween-80

CN(C)C1C(CO)C(CO)C1(C)C (centres undefined)
T/C (endpoint: mean survival time, dose: 50.0 mg/kg/injection, schedule: Q01DX001 (ip), vehicle: saline with Tween-80): 98 % of control | T/C [1]: 97 % of control | T/C [2]: 98 % of control | T/C [3]: 97 % of control

CC(=O)N(C)c1ccc(Nc2cc(C)[nH]c3ccc4ncnc4c23)cc1
T/C (endpoint: mean survival time, dose: 6.25 mg/kg/injection, schedule: Q01DX009 (ip), vehicle: saline): 114 % of control and 110 % of control | T/C [4]: 120 % of control and 110 % of control | T/C [5]: 118 % of control and 121 % of control | T/C [6]: 119 % of control | T/C [7]: 113 % of control and 100 % of control | T/C (endpoint: median survival time, dose: 67.0 mg/kg/injection, schedule: Q01DX005 (ip), vehicle: saline): 156 % of control and 164 % of control | T/C (endpoint: median survival time, dose: 100.0 mg/kg/injection, schedule: Q01DX005 (ip), vehicle: saline): 160 % of control

CC(=O)N(CC(C)C)N=O
T/C [8]: 95 % of control | T/C (endpoint: mean survival time, dose: 100.0 mg/kg/injection, schedule: Q04DX003 (ip), vehicle: saline): 102 % of control | T/C [9]: 97 % of control | T/C (endpoint: mean survival time, dose: 200.0 mg/kg/injection, schedule: Q04DX003 (ip), vehicle: saline): 97 % of control | T/C (endpoint: mean survival time, dose: 400.0 mg/kg/injection, schedule: Q01DX001 (ip), vehicle: saline): 89 % of control | T/C (endpoint: mean survival time, dose: 400.0 mg/kg/injection, schedule: Q04DX003 (ip), vehicle: saline): 94 % of control

CN(C)C(=O)NCCN(CCNC(=O)N(C)C)C(=O)N(C)C
T/C [10]: 98 % of control | T/C [11]: 96 % of control | T/C [12]: 94 % of control

O=c1[nH]c2ccccc2c2ccccc12
T/C [13]: 98 % of control | T/C [14]: 90 % of control | T/C [15]: 102 % of control

CCOC(=O)c1ccc(NC(=O)Nc2nncs2)cc1
T/C (endpoint: mean survival time, dose: 6.25 mg/kg/injection, schedule: Q01DX009 (ip), vehicle: distilled water + Tween-80): 101 % of control | T/C (endpoint: mean survival time, dose: 12.5 mg/kg/injection, schedule: Q01DX009 (ip), vehicle: distilled water + Tween-80): 97 % of control and 103 % of control | T/C (endpoint: mean survival time, dose: 25.0 mg/kg/injection, schedule: Q01DX009 (ip), vehicle: distilled water + Tween-80): 104 % of control and 107 % of control | T/C (endpoint: mean survival time, dose: 50.0 mg/kg/injection, schedule: Q01DX009 (ip), vehicle: distilled water + Tween-80): 113 % of control and 115 % of control | T/C (endpoint: mean survival time, dose: 100.0 mg/kg/injection, schedule: Q01DX009 (ip), vehicle: distilled water + Tween-80): 104 % of control and 112 % of control | T/C (endpoint: mean survival time, dose: 200.0 mg/kg/injection, schedule: Q01DX009 (ip), vehicle: distilled water + Tween-80): 115 % of control

CC1CC2(C)C(CC1=O)CC(C)C1C3CCC(O)C3(C)CCC12 (centres undefined)
T/C [10]: 97 % of control | T/C [11]: 92 % of control | T/C [12]: 95 % of control

CCCCCC[C@@H](O)[C@@H]1C2=C(C[C@H]([C@H](O)[C@@H]3CC=CC(=O)O3)CC3=C(C(=O)OC3=O)[C@@H]1O)C(=O)OC2=O
T/C (endpoint: mean survival time, dose: 0.13 mg/kg/injection, schedule: Q01DX001 (ip), vehicle: saline): 97 % of control | T/C (endpoint: mean survival time, dose: 0.25 mg/kg/injection, schedule: Q01DX001 (ip), vehicle: saline): 95 % of control | T/C (endpoint: mean survival time, dose: 0.5 mg/kg/injection, schedule: Q01DX001 (ip), vehicle: saline): 96 % of control | T/C (endpoint: mean survival time, dose: 1.0 mg/kg/injection, schedule: Q01DX001 (ip), vehicle: saline): 96 % of control | T/C (endpoint: mean survival time, dose: 2.0 mg/kg/injection, schedule: Q01DX001 (ip), vehicle: saline): 96 % of control

COc1ccc(-c2cc(C(=O)O)c3ccc(C)cc3n2)cc1
T/C [10]: 102 % of control | T/C [11]: 101 % of control | T/C [12]: 101 % of control

ClC(c1ccccc1)C(Cl)c1ccccc1 (centres undefined)
T/C (endpoint: mean survival time, dose: 3.13 mg/kg/injection, schedule: Q01DX009 (ip), vehicle: saline with Tween-80): 102 % of control | T/C (endpoint: mean survival time, dose: 6.25 mg/kg/injection, schedule: Q01DX009 (ip), vehicle: saline with Tween-80): 102 % of control | T/C (endpoint: mean survival time, dose: 12.5 mg/kg/injection, schedule: Q01DX009 (ip), vehicle: saline with Tween-80): 91 % of control and 95 % of control

COc1ccc2cc[n+](C)c(Cc3ccc(OC)c(Oc4ccc(Cc5c(OC)ccc6cc[n+](C)cc56)cc4)c3)c2c1
T/C (endpoint: mean survival time, dose: 1.56 mg/kg/injection, schedule: Q04DX003 (ip), vehicle: other): 98 % of control | T/C (endpoint: mean survival time, dose: 3.13 mg/kg/injection, schedule: Q04DX003 (ip), vehicle: other): 102 % of control | T/C (endpoint: mean survival time, dose: 6.25 mg/kg/injection, schedule: Q04DX003 (ip), vehicle: other): 98 % of control and 103 % of control

COC(=O)C(c1ccccc1)C(c1ccccc1)c1ccccc1 (centres undefined)
T/C [16]: 95 % of control | T/C [17]: 87 % of control

O=C(/C=C/c1ccccc1)Nc1ccccc1Cl
T/C [16]: 105 % of control | T/C [17]: 98 % of control | T/C (endpoint: mean survival time, dose: 400.0 mg/kg/injection, schedule: Q04DX002 (ip), vehicle: saline with Tween-80): 98 % of control

O=Cc1ccc(O)c(O)c1
T/C [4]: 93 % of control | T/C (endpoint: mean survival time, dose: 25.0 mg/kg/injection, schedule: Q01DX009 (ip), vehicle: saline with Tween-80): 106 % of control | T/C [5]: 98 % of control | T/C [18]: 106 % of control | T/C [6]: 98 % of control | T/C [13]: 114 % of control and 102 % of control | T/C [7]: 107 % of control | T/C [14]: 109 % of control | T/C (endpoint: mean survival time, dose: 200.0 mg/kg/injection, schedule: Q01DX009 (ip), vehicle: saline): 116 % of control | T/C [15]: 117 % of control

BrC1CC2CC1C1C=CCC21 (centres undefined)
T/C [13]: 100 % of control | T/C [14]: 101 % of control | T/C [15]: 101 % of control

CCCCOC(=O)c1ccc(Cl)c(Cl)c1
T/C (endpoint: mean survival time, dose: 100.0 mg/kg/injection, schedule: Q04DX003 (ip), vehicle: Klucel (hydroxypropylcellulose) (HPC)): 92 % of control | T/C (endpoint: mean survival time, dose: 200.0 mg/kg/injection, schedule: Q04DX003 (ip), vehicle: Klucel (hydroxypropylcellulose) (HPC)): 96 % of control | T/C (endpoint: mean survival time, dose: 400.0 mg/kg/injection, schedule: Q04DX003 (ip), vehicle: Klucel (hydroxypropylcellulose) (HPC)): 103 % of control

CC(C)(CO)CCCCCCC(C)(C)CO
T/C [18]: 98 % of control | T/C [13]: 106 % of control | T/C [14]: 106 % of control

CC1(C)SC2C(NC(=O)Cc3ccccc3)C(=O)N2C1C(=O)O (centres undefined)
T/C (endpoint: mean survival time, dose: 25.0 mg/kg/injection, schedule: Q01DX001 (ip), vehicle: saline): 97 % of control | T/C (endpoint: mean survival time, dose: 25.0 mg/kg/injection, schedule: Q04DX002 (ip), vehicle: saline): 97 % of control | T/C (endpoint: mean survival time, dose: 50.0 mg/kg/injection, schedule: Q01DX001 (ip), vehicle: saline): 100 % of control | T/C (endpoint: mean survival time, dose: 50.0 mg/kg/injection, schedule: Q04DX002 (ip), vehicle: saline): 100 % of control | T/C [8]: 100 % of control and 102 % of control | T/C (endpoint: mean survival time, dose: 100.0 mg/kg/injection, schedule: Q04DX002 (ip), vehicle: saline): 97 % of control and 100 % of control | T/C (endpoint: mean survival time, dose: 200.0 mg/kg/injection, schedule: Q01DX001 (ip), vehicle: carboxymethylcellulose (CMC)): 104 % of control | T/C [9]: 97 % of control and 100 % of control | T/C (endpoint: mean survival time, dose: 200.0 mg/kg/injection, schedule: Q04DX002 (ip), vehicle: saline): 102 % of control and 104 % of control | T/C (endpoint: mean survival time, dose: 400.0 mg/kg/injection, schedule: Q01DX001 (ip), vehicle: carboxymethylcellulose (CMC)): 100 % of control

COc1ccc2cc(OC)c(OC)cc2n1
T/C [1]: 96 % of control | T/C [2]: 96 % of control | T/C [3]: 98 % of control

CN(C)Cc1cc(C(C)(C)C)c(O)c(C(C)(C)C)c1
T/C (endpoint: mean survival time, dose: 25.0 mg/kg/injection, schedule: Q04DX003 (ip), vehicle: saline with Tween-80): 112 % of control | T/C (endpoint: mean survival time, dose: 50.0 mg/kg/injection, schedule: Q04DX003 (ip), vehicle: saline with Tween-80): 108 % of control | T/C [10]: 100 % of control

O=C(COc1cccc(Cl)c1)NCc1ccccc1NC(=O)CBr
T/C (endpoint: mean survival time, dose: 2.35 mg/kg/injection, schedule: Q01DX001 (ip), vehicle: saline with Tween-80): 101 % of control | T/C (endpoint: mean survival time, dose: 4.7 mg/kg/injection, schedule: Q01DX001 (ip), vehicle: saline with Tween-80): 97 % of control | T/C (endpoint: mean survival time, dose: 9.4 mg/kg/injection, schedule: Q01DX001 (ip), vehicle: saline with Tween-80): 92 % of control
